According to US20230098403A1, “MAGNETIC RESONANCE IMAGING CONTRAST AGENT, PREPARATION METHOD AND USE THEREOF” (GUANGZHOU PINGLAN MEDICAL TECHNOLOGY CO., LTD., priority 2020, published 2023):

Experiments:
[1] = Excretion kinetics test, Mn^2+ in urine and bile by ICP-MS; format: in vivo, SD rats; conditions: tail vein 0.1 mmol/kg; for Bile: Mn^2+ excretion amount / Bile: cumulative Mn^2+ excretion amount / Bile: cumulative Mn^2+ excretion rate / Urine: Mn^2+ excretion amount / Urine: cumulative Mn^2+ excretion amount / Urine: cumulative Mn^2+ excretion rate: SD rats, n = 7
Protocol: Clean grade Sprague Dawley (SD) rats, 5 males and 3 females, weighing 250±50 g, were purchased from the Animal Experimental Center of North Sichuan Medical College, fasted for 12-16 h before the experiment and anesthetized by intraperitoneal injection of 3% sodium pentobarbital (40 mg/kg).
The rat tail was soaked in hot water at about 40° C. for about 1 minute, and it was wiped and sterilized by a cotton ball dipped in alcohol followed by fixing and stretching the tip of the tail with left thumb and middle finger, and flatting with the index finger. The tail vein was located at both sides of the tail and was light cyan in color. Air in an indwelling needle was removed with normal saline, and the indwelling needle was inserted into the vein at an angle of 15° to the vein. When blood was returned, the indwelling needle was pushed forward after insertion. Then the indwelling needle was fixed on the tail of the rat, and normal saline was injected at a rate of about 2 mL/h.
After sterilization, a longitudinal incision was made in the middle of the abdomen of rats below the xiphoid, by incising the skin, subcutaneous tissue, linea alba, and peritoneum layer by layer into the abdomen. A forcep was used for opening the left and right lobes of the liver, below which the duodenum and omentum were exposed. The transverse part of the duodenum was stretched with the forcep in the middle, and the pale yellow biliary tract was covered by the omentum and extended from the subhepatic portion to the duodenum. The biliary tract was bluntly dissected out, picked out with a glass pick, and a venous indwelling needle was inserted near the duodenum, fixed with a hemostatic clip, and bile was collected as a pre-dose sample.
A longitudinal incision was made at 0.5 cm above the urethral orifice of rats, and the skin was incised and the muscles were bluntly separated. After the bladder was filled to a certain extent, the bladder was lifted by the left hand with a tweezer, and the venous indwelling needle was held by the right hand and was obliquely inserted into the bladder toward the top, along the opening of ureter on the dorsal lateral side of the bladder, and the needle was removed to collect urine as a pre-dose sample.
After collecting pre-dose bile and urine samples, the drug was rapidly administered in the tail vein at a dose of 0.1 mmol/kg.
The hourly biliary excretion amount and hourly urinary excretion amount were collected after drug administration; the samples were weighed and frozen at −20° C.
[…] of the sample (bile and urine) was diluted to 6 to 10 ml with 1% HNO3 to make the concentrations of Mn^2+ in the range of 1 to 1000 ppb. The concentrations of Mn^2+ in the samples solution were numbered and detected. The Mn^2+ concentrations in the sample solutions were calculated according to the response intensity and standard curve.
Origin 9.0 was used for calculating data and drawing. The excretion amount during the period was obtained by multiplying the dilution ratio, measurement concentration and urine (bile) volume. The excretion amount during each period was compared with the dosage of administration to obtain the percentage of cumulative drug excretion amount during the corresponding time period.

[2] = In vivo imaging in rats (3.0 T MRI); conditions: SD rats, 0.2 mmol/kg tail vein
Protocol: 1. Sixteen SD rats were divided into a KBR0826 contrast agent group (experimental group) and a gadoteric acid meglumine (Gd-DOTA) contrast agent group (control group), with 8 rats in each group, fasted for 12 hours (drank water freely).
2. 3% sodium pentobarbital (60 to 70 mg/kg) was weighed for intraperitoneal anesthesia.
3. The dosage of KBR0826 was 0.2 mmol/kg. SD rats were imaged in vivo with a 3.0 T MRI imager. Contrast agents were injected into the tail vein. The signal intensities (SI) of the heart, liver, brain parenchyma, muscle, and abdominal aorta in rats were measured before and after injection, and signal to noise ratio (SNR) was calculated and time-signal intensity curve was drawn to evaluate the imaging effect of the contrast agents.

Which “Bile: Mn^2+ excretion amount” value ([1]; sampling period 0-1 h) does the source give for `O=C([O-])CN(CP(=O)([O-])O)C1CCCCC1N(CC(=O)[O-])CP(=O)([O-])O.[Mn+2].[Na+].[Na+]` (stereo not shown) [KBR0826] here?
Its value is 0.0386 mg.

And the “Bile: cumulative Mn^2+ excretion amount” value ([1]; sampling period 0-1 h)?
Its value is 0.0385 mg.

And the “Bile: cumulative Mn^2+ excretion rate” value ([1]; sampling period 0-1 h)?
Its value is 2.81%.

What about the “Urine: Mn^2+ excretion amount” value ([1]; sampling period 0-1 h) of the same compound?
The value was 0.06995 mg.

And the “Urine: cumulative Mn^2+ excretion amount” value ([1]; sampling period 0-1 h)?
Its value is 0.06995 mg.

What about the “Urine: cumulative Mn^2+ excretion rate” value ([1]; sampling period 0-1 h) of the same compound?
Its value is 5.28%.

What about the “Bile: Mn^2+ excretion amount” value ([1]; sampling period 1-2 h) of the same compound?
Its value is 0.0865 mg.

And the “Bile: cumulative Mn^2+ excretion amount” value ([1]; sampling period 1-2 h)?
The value was 0.1251 mg.

What about the “Bile: cumulative Mn^2+ excretion rate” value ([1]; sampling period 1-2 h) of the same compound?
The value was 9.31%.

And the “Urine: Mn^2+ excretion amount” value ([1]; sampling period 1-2 h)?
Its value is 0.1582 mg.

What about the “Urine: cumulative Mn^2+ excretion amount” value ([1]; sampling period 1-2 h) of the same compound?
The value was 0.2281 mg.

What about the “Urine: cumulative Mn^2+ excretion rate” value ([1]; sampling period 1-2 h) of the same compound?
Its value is 18.27%.

What about the “Bile: Mn^2+ excretion amount” value ([1]; sampling period 2-3 h) of the same compound?
Its value is 0.0518 mg.

What about the “Bile: cumulative Mn^2+ excretion amount” value ([1]; sampling period 2-3 h) of the same compound?
Its value is 0.1768 mg.

What about the “Bile: cumulative Mn^2+ excretion rate” value ([1]; sampling period 2-3 h) of the same compound?
Its value is 13.17%.

What about the “Urine: Mn^2+ excretion amount” value ([1]; sampling period 2-3 h) of the same compound?
The value was 0.1094 mg.

And the “Urine: cumulative Mn^2+ excretion amount” value ([1]; sampling period 2-3 h)?
The value was 0.3375 mg.

And the “Urine: cumulative Mn^2+ excretion rate” value ([1]; sampling period 2-3 h)?
The value was 26.67%.

And the “Bile: Mn^2+ excretion amount” value ([1]; sampling period 3-4 h)?
Its value is 0.0333 mg.

What about the “Bile: cumulative Mn^2+ excretion amount” value ([1]; sampling period 3-4 h) of the same compound?
The value was 0.2101 mg.

And the “Bile: cumulative Mn^2+ excretion rate” value ([1]; sampling period 3-4 h)?
Its value is 15.69%.

What about the “Urine: Mn^2+ excretion amount” value ([1]; sampling period 3-4 h) of the same compound?
Its value is 0.02084 mg.

And the “Urine: cumulative Mn^2+ excretion amount” value ([1]; sampling period 3-4 h)?
Its value is 0.3399 mg.

What about the “Urine: cumulative Mn^2+ excretion rate” value ([1]; sampling period 3-4 h) of the same compound?
The value was 26.71%.

And the “Bile: Mn^2+ excretion amount” value ([1]; sampling period 4-5 h)?
Its value is 0.043 mg.

What about the “Bile: cumulative Mn^2+ excretion amount” value ([1]; sampling period 4-5 h) of the same compound?
The value was 0.2627 mg.

What about the “Bile: cumulative Mn^2+ excretion rate” value ([1]; sampling period 4-5 h) of the same compound?
Its value is 19.66%.

And the “Urine: Mn^2+ excretion amount” value ([1]; sampling period 4-5 h)?
Its value is 0.01213 mg.

And the “Urine: cumulative Mn^2+ excretion amount” value ([1]; sampling period 4-5 h)?
Its value is 0.3521 mg.

What about the “Urine: cumulative Mn^2+ excretion rate” value ([1]; sampling period 4-5 h) of the same compound?
Its value is 27.59%.

And the “Bile: Mn^2+ excretion amount” value ([1]; sampling period 5-6 h)?
The value was 0.0318 mg.

And the “Bile: cumulative Mn^2+ excretion amount” value ([1]; sampling period 5-6 h)?
Its value is 0.2945 mg.

What about the “Bile: cumulative Mn^2+ excretion rate” value ([1]; sampling period 5-6 h) of the same compound?
Its value is 22.07%.

What about the “Urine: Mn^2+ excretion amount” value ([1]; sampling period 5-6 h) of the same compound?
Its value is 0.00387 mg.

And the “Urine: cumulative Mn^2+ excretion amount” value ([1]; sampling period 5-6 h)?
Its value is 0.3559 mg.

What about the “Urine: cumulative Mn^2+ excretion rate” value ([1]; sampling period 5-6 h) of the same compound?
Its value is 27.88%.

What about the “Bile: Mn^2+ excretion amount” value ([1]; sampling period 6-7 h) of the same compound?
Its value is 0.0265 mg.

And the “Bile: cumulative Mn^2+ excretion amount” value ([1]; sampling period 6-7 h)?
The value was 0.3209 mg.

And the “Bile: cumulative Mn^2+ excretion rate” value ([1]; sampling period 6-7 h)?
Its value is 24.05%.

And the “Urine: Mn^2+ excretion amount” value ([1]; sampling period 6-7 h)?
Its value is 0.00284 mg.

What about the “Urine: cumulative Mn^2+ excretion amount” value ([1]; sampling period 6-7 h) of the same compound?
The value was 0.3588 mg.

And the “Urine: cumulative Mn^2+ excretion rate” value ([1]; sampling period 6-7 h)?
Its value is 28.09%.

And the “Bile: Mn^2+ excretion amount” value ([1]; sampling period 7-8 h)?
The value was 0.0219 mg.

And the “Bile: cumulative Mn^2+ excretion amount” value ([1]; sampling period 7-8 h)?
The value was 0.3429 mg.

What about the “Bile: cumulative Mn^2+ excretion rate” value ([1]; sampling period 7-8 h) of the same compound?
Its value is 25.67%.

And the “Urine: Mn^2+ excretion amount” value ([1]; sampling period 7-8 h)?
Its value is 0.0018 mg.

And the “Urine: cumulative Mn^2+ excretion amount” value ([1]; sampling period 7-8 h)?
The value was 0.3606 mg.

And the “Urine: cumulative Mn^2+ excretion rate” value ([1]; sampling period 7-8 h)?
Its value is 28.22%.

And the “Bile: Mn^2+ excretion amount” value ([1]; sampling period 8-9 h)?
The value was 0.02 mg.

What about the “Bile: cumulative Mn^2+ excretion amount” value ([1]; sampling period 8-9 h) of the same compound?
Its value is 0.3684 mg.

What about the “Bile: cumulative Mn^2+ excretion rate” value ([1]; sampling period 8-9 h) of the same compound?
Its value is 27.03%.

And the “Urine: Mn^2+ excretion amount” value ([1]; sampling period 8-9 h)?
Its value is 0.00083 mg.

And the “Urine: cumulative Mn^2+ excretion amount” value ([1]; sampling period 8-9 h)?
The value was 0.3614 mg.

And the “Urine: cumulative Mn^2+ excretion rate” value ([1]; sampling period 8-9 h)?
Its value is 28.28%.

What about the “Bile: Mn^2+ excretion amount” value ([1]; sampling period 9-10 h) of the same compound?
The value was 0.0179 mg.

What about the “Bile: cumulative Mn^2+ excretion amount” value ([1]; sampling period 9-10 h) of the same compound?
Its value is 0.3859 mg.

And the “Bile: cumulative Mn^2+ excretion rate” value ([1]; sampling period 9-10 h)?
Its value is 29.97%.

And the “Urine: Mn^2+ excretion amount” value ([1]; sampling period 9-10 h)?
The value was 0.00061 mg.

And the “Urine: cumulative Mn^2+ excretion amount” value ([1]; sampling period 9-10 h)?
Its value is 0.362 mg.

And the “Urine: cumulative Mn^2+ excretion rate” value ([1]; sampling period 9-10 h)?
The value was 28.33%.

What about the excretion route ([1]; rats) of the same compound?
The excretion route was “mainly excreted through liver and kidney”.

What about the “time course of excretion in urine and bile” value ([1]; rats) of the same compound?
The value was “mainly in urine at the early stage and then in bile”.

And the “excreted in liver and kidney” value ([1]; rats, within 600 min)?
Its value is “about 60%”.

And the “share of liver and kidney in excretion” value ([1]; rats, within 600 min)?
Its value is “half and half”.

What about the “excretion seen by imaging” value [2] of the same compound?
The value was “could be excreted through the kidneys and intestines”.

And the liver enhancement [2]?
Its liver enhancement is “obvious and continuous”.

And the “passage through the blood-brain barrier” value [2]?
The value was “could not pass through the normal blood-brain barrier”.
